How the values were obtained:
[1] = tested on: d(GCGCGCGCGC)2 (DNA, duplex) GCGCGCGCGC; experiment: TRIR and transient absorption; details: 50 mM potassium phosphate; pH 7, D2O
[2] = tested on: d(CGCGAATTCGCG)2 (DNA, duplex) CGCGAATTCGCG; experiment: emission titration (quenching), TRIR; details: 50 mM potassium phosphate; pH 7; [Ru] 10 μM
[3] = tested on: poly(dA-dT) (DNA, polymer) AT; experiment: emission titration (enhancement), TRIR; details: 10 mM sodium phosphate, [Ru] 8 μM
[4] = tested on: poly(dG-dC) (DNA, polymer) GC; experiment: emission titration, McGhee-von Hippel fit; details: 10 mM phosphate buffer (sodium in Fig. 2, potassium in Fig. S1); pH 7, air-saturated; [Ru] 20 μM; per base
[5] = tested on: d(CGCAAATTTGCG)2 (DNA, duplex) CGCAAATTTGCG; experiment: emission titration (complex, decrease then increase), TRIR; details: 50 mM potassium phosphate; pH 7; [Ru] 10 μM

| Compound | binding [1] | binding [2] | binding ([3]; saturation not reached) | Kb [4] | binding [5] | binding ([3]; reaches saturation) |
| --- | --- | --- | --- | --- | --- | --- |
| [Ru+2].c1ccc2nc3c4cccnc4c4ncccc4c3nc2c1.c1cnc2c(ccc3nccnc32)n1.c1cnc2c(ccc3nccnc32)n1 [Λ-1] | yes | yes | yes | 1.2 ± 0.1 × 10^6 M^-1 | yes | – |
| [Ru+2].c1ccc2nc3c4cccnc4c4ncccc4c3nc2c1.c1cnc2c(ccc3nccnc32)n1.c1cnc2c(ccc3nccnc32)n1 [Δ-1] | yes | yes | – | 3.6 ± 0.2 × 10^6 M^-1 | yes | yes |
